# Article PMC11964933, “Site-specific activation of the proton pump inhibitor rabeprazole by tetrathiolate zinc centres” (Nature Chemistry, 2025)
# Where a chain is given by its changes, count along the chain named.
# How the values were obtained:
# [1] = target: T1, His-DENR–MCTS1 complex (recombinant WT DENR; DENR* = C13A/C132A/C154A) (Homo sapiens, UniProt O43583, C13A/C132A/C154A); assay: differential alkylation LC-MS; intact protein MS; Zn release (PAR); format: binding; settings: covalent; 25 µM rabeprazole, fivefold excess, 15 min, r.t., pH 7.5; site C44
# T1 construct: His-tagged DENR co-expressed with MCTS1 in Escherichia coli; heterodimeric complex; C4 zinc site C34/C37/C44/C53
# T1 sequence (O43583 2-198 C13A/C132A/C154A): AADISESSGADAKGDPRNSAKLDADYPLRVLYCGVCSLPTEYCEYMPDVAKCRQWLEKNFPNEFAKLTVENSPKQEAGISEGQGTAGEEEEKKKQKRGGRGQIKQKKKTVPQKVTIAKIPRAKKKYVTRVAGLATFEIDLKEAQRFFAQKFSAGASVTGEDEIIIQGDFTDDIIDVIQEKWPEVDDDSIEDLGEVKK
# T1 sequence (Q9ULC4 1-181 partner): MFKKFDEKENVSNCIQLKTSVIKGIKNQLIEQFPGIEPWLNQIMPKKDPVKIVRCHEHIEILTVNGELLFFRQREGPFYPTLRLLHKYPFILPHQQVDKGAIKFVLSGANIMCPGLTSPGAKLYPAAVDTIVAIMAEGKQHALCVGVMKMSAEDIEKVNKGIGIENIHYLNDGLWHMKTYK
# [2] = target: T2, 15N-labelled DENR26–98–MCTS1 complex (Homo sapiens, UniProt O43583); assay: 1H NMR and 1H-15N HSQC; format: binding; settings: covalent; fivefold excess, pH 7.5, 298 K
# T2 construct: gene DENR; DENR residues 26-98, 15N-labelled, in complex with MCTS1
# T2 sequence (O43583 26-98): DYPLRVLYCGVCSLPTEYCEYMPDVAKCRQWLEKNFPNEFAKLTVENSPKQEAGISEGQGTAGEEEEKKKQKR
# T2 sequence (Q9ULC4 1-181 partner): T1 sequence (Q9ULC4 1-181 partner)
# [3] = target: T3, His-DENR–MCTS1 complex (recombinant WT DENR; DENR* = C13A/C132A/C154A) (Homo sapiens, UniProt O43583); assay: LC-MS/MS adduct mapping; format: binding; settings: covalent; fivefold excess, iodoacetamide, 15 min, r.t., pH 7.5; sites C44 and C34
# T3 construct: His-tagged DENR co-expressed with MCTS1 in Escherichia coli; heterodimeric complex; C4 zinc site C34/C37/C44/C53
# T3 sequence (O43583 2-198): T1 sequence (O43583 2-198 C13A/C132A/C154A) with A12C, A131C, A153C
# T3 sequence (Q9ULC4 1-181 partner): T1 sequence (Q9ULC4 1-181 partner)
# [4] = target: T3, His-DENR–MCTS1 complex (recombinant WT DENR; DENR* = C13A/C132A/C154A); assay: in-gel Cy5 labelling after click chemistry; format: binding; settings: covalent; with NEM; zinc-dependent
# [5] = target: T4, SBP-DENR (SBP-DENR* = C13A/C132A/C154A) (Homo sapiens, UniProt O43583); assay: affinity purification and click Cy5 in-gel labelling; format: cell-based; settings: covalent; intact HEK293 MSR cells, 10 µM, 15 min, 37 °C
# T4 sequence (O43583 1-198): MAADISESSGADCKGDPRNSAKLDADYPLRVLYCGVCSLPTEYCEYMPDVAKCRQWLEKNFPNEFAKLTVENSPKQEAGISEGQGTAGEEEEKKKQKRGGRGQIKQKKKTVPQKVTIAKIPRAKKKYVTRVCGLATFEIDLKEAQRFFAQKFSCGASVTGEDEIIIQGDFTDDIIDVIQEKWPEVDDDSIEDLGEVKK
occupancy [1],Compound,1H NMR and 1H-15N HSQC [2],LC-MS/MS adduct mapping [3],in-gel Cy5 labelling after click chemistry [4],affinity purification and click Cy5 in-gel labelling [5]
~ 80%,COCCCOc1ccnc(C[S+]([O-])c2nc3ccccc3[nH]2)c1C (centres unmarked) [rabeprazole],DENR exhibited time-dependent chemical shift perturbations of the amide peaks during incubation with rabeprazole,we identified the hydrolysed form of rabeprazole on cysteines C44,–,–
–,Cc1c(OCCCN=[N+]=[N-])ccnc1C[S+]([O-])c1nc2ccccc2[nH]1 (centres unmarked) [Rabazi],–,–,Rabazi conjugation to recombinant DENR leads to a rather weak and diffuse band,led to the formation of an SBP-DENR–Rabazi disulfide conjugate
